US5321016A, “Use of certain substituted α-amino acids in treating stress-related psychiatric disorders” (Sandoz Pharmaceuticals Corp., priority 1986, dated 1994)

Legend:
plasma corticosterone = assay: inhibition of plasma corticosterone rise induced by social stress in mice; assay type: in vivo, mouse (male, OF-1); settings: 0.3 to 3 mg/kg p.o.
Method: This can be shown in the following test:
One day before the experiment a group of 5 male mice (40-50 g, OF-1, Sandoz,Basle) were placed in a transparent makrolon cage Typ 3, which is cut in halves by a grid. The next day each mouse was given an oral dose of 0.3-30 mg/kg of a compound of the invention, Two hours later an isolated male mouse was introduced for 15 minutes into the empty half of the cage and two trained observers recorded the behaviour of the mice in terms of acts such as dig, push-dig and rattle. Blood plasma samples were then taken from the tested mice group and assayed for corticosterone concentrations using a modified method of Paerson-Murphy B. E., J. Clin. Endocrinology 27 (1967) 973-990. The procedure was repeated with a control group of 5 mice which was given only a solvent.

[1] = test system: electroshock-induced convulsions; assay: inhibition of electroshock-induced convulsions in the mouse; assay type: in vivo, mouse (OF-1); settings: ip, 1 h, i.p., 60 minutes before shock, read-out: EDmin in the electroshock-induced convulsion test
Method: E. Swinyard, J. Am. Pharm. Assoc. Scient. Ed. 38, 201 (1949) and J. Pharmacol. Exptl. Therap. 106, 319 (1952)]. In this test groups of 3 mice (18-26 g, OF-1, Sandoz Basle) receive the test substance in a dosage of 3.2-100 mg/kg i.p. After 60 minutes a 50 mA, 200 ms long shock is applied with corneal electrodes smeared with electrolyte jelly. This supra-threshold shock produces tonic extensor convulsions of all extremities. Inhibition of the hindlimb extension is taken as a protective action. After investigation of several dose-levels an EDmin is estimated.

[2] = test system: NMDA (N-Methyl-D-aspartic acid) receptors; assay: inhibition of NMDA-induced depolarizations of the isolated amphibian spinal cord (competitive antagonism); assay type: cell-based, toad or frog; settings: at 5 μM
Source text: The compounds of the invention further interact with excitatory amino acid systems, in particular they are competitive antagonists of NMDA (N-Methyl-D-aspartic acid) receptors, as indicated by an inhibitory effect on NMDA-induced depolarizations of the isolated amphibian spinal cord. This may be shown in the test performed in conventional manner (see for example D. R. Curtis et al., J. Physiol. (London) 150, 656-682 (1961) and R. H. Evans et al., Br. J. Pharmac. 67, 591-603 (1979) as follows:
A hemisected proximal part of the spinal cord of a toad or frog lies in a recording chamber being perfused by a Ringer solution (111 mM NaCl, 2 mM KCl, 2 mM CaCl2, 12 mM Glucose, Tris-buffer (pH 7.5, 10 mM). The dorsal root is pulled into the stimulating chambers, the ventral root into the recording chambers. A stimulator connected to the stimulating chambers is used. A DC high impedance preamplifier measures the DC potential between the ground lead sampling the main chamber and one of the recording chambers. The signal from the pre-amplifier is monitored on a CRO to display stimulated synaptic activity (dorsal root--ventral root potential, DR--VRP) or to a chart recorder to display slow changes in potential. […]
Antagonists are tested in two stages. […] In such cases pA2 values are calculated according to the formula […]

NC(Cc1cc(CP(=O)(O)O)cc(-c2ccccc2)c1)C(=O)O (single isomer, unassigned) [Example 16, (+)-α-Amino-3-(5-phosphonomethyl-[1.1'-biphenyl]-3-yl) propanoic acid]
inhibition of the rise of plasma-corticosterone (social stress) (plasma corticosterone): inhibits significantly

NC(Cc1cc(CP(=O)(O)O)cc(-c2ccc(Cl)cc2)c1)C(=O)O (racemic) [Example 1, (±)-α-Amino-3-(4'-chloro-5-phosphonomethyl-[1.1'-biphenyl]-3-yl)propanoic acid]
minimal effective dose [1]: < 50 mg/kg | pA2 as NMDA receptor inhibitor [2]: 7.3
